Assays:
S. aureus = assay: In vivo anti-microbial activity against S. aureus
Procedure: (§1) For example, the anti-microbial activity of calcium myxin dihydrate, prepared by the method of this invention, is evaluated and compared to that of myxin itself both in vivo against 4 strains of bacteria and in vitro against yeast and fungus infections.

P. aeruginosa = assay: In vivo anti-microbial activity against P. aeruginosa
Procedure: as §1

M. canis = assay: In vitro anti-microbial activity (minimum inhibitory concentration) against M. canis; type: cell-based
Procedure: as §1

S. agalactiae = assay: In vivo anti-microbial activity against S. agalactiae
Procedure: as §1

E. coli = assay: In vivo anti-microbial activity against E. coli
Procedure: as §1

C. albicans = assay: In vitro anti-microbial activity (minimum inhibitory concentration) against C. albicans; type: cell-based
Procedure: as §1

Solubility in water = type: physicochemical
[1] = tested on: gram positive and gram negative bacteria, fungi, protozoa and helminths; assay: Anti-microbial activity in in vitro tests and in vivo topical infections (general statement)

Row | Molecule | ED50' (in vivo) (S. aureus) [µg/mL] | ED50' (in vivo) (P. aeruginosa) [µg/mL] | Minimum Inhibitory Concentration, cidal (M. canis; cidal) [µg/mL] | Minimum Inhibitory Concentration, static (M. canis; static) [µg/mL] | ED50' (in vivo) (S. agalactiae) [µg/mL] | ED50' (in vivo) (E. coli) [µg/mL] | Minimum Inhibitory Concentration, cidal (C. albicans; cidal) [µg/mL] | Minimum Inhibitory Concentration, static (C. albicans; static) [µg/mL] | solubility in water (Solubility in water) | anti-microbial activity [1]
1 | 6-methoxy-1-phenazinol 5,10-dioxide, calcium dihydrate complex [Calcium Myxin Dihydrate] | < 20 | 20 | < 0.8 | < 0.8 | < 4 | 60 | < 0.8 | < 0.8 | – | –
2 | COc1cccc2c1[n+]([O-])c1cccc(O)c1[n+]2[O-] [Myxin, 6-methoxy-1-phenazinol 5,10-dioxide] | – | – | – | – | – | – | – | – | very slightly soluble in water | high degree and wide spectrum of anti-microbial activity

Reference: US3966734A, “Method for the purification of 6-methoxy-1-phenazinol 5,10-dioxide” (Hoffmann-La Roche Inc., priority 1975, dated 1976)
